Patent US20260048111A1, “Pharmaceutical Composition, Preparation Method and Use Thereof” (PuGong Biotech (Hangzhou) Co., Ltd., priority 2023, published 2026)
Where two headings read alike, the source gives them in different places.

Experiments:
LLC cells = type: in vivo, mouse; conditions: for Tumor Inhibition Rate: LLC
Experimental: The LLC cells were cultured in DMEM medium containing […] high-quality fetal bovine serum, in a cell incubator with […] CO2 at 37° C.
The LLC cells (tumor source) in the logarithmic growth phase were collected, and 0.1 mL of cell suspension (containing approximately 1×10^6 cells) was inoculated subcutaneously into the axillary region of the corresponding C57/BL/6 mice.
(§1) On day 1 after tumor cell inoculation, all mice were randomly grouped before drug administration.
(§2) Dosing was performed according to the design of the pharmacological study protocol.
On day 7 and day 9 after tumor cell inoculation, the length (a) and width (b) of the tumor in each group of animals were measured externally. The tumor volume was estimated using the formula: V=0.52×a×b^2.
On day 10 after tumor cell inoculation, the experiment was terminated, and tumors were excised and weighed from each group of animals.
Statistical analysis and tumor inhibition rate calculation were performed as follows: Data were statistically analyzed using GraphPad Prism software. The tumor inhibition rate was calculated based on tumor size or tumor weight using the following formula: Tumor Inhibition Rate (%)=[(Average tumor volume or tumor weight of control group−Average tumor volume or tumor weight of treatment group)/Average tumor volume or tumor weight of control group]×[…].

[1] = tested on: Mouse Lewis lung carcinoma (LLC) cells; experiment: Anti-tumor efficacy of PGc alone and with anti-mouse PD-1, LLC tumor in C57BL/6 mice (Example 6); type: in vivo
Experimental: The LLC cells were cultured in DMEM medium containing 10% high-quality fetal bovine serum (FBS) and maintained in a cell incubator with 5% CO2 at 37° C.
The LLC cells (tumor source) in the logarithmic growth phase were collected, and 0.1 mL of cell suspension (approximately 1×10^6 cells) was inoculated subcutaneously into the axillary region of the corresponding mice.
as §1, §2
On day 10 after tumor cell inoculation, the experiment was terminated, and tumors in each group of animals were excised and weighed.
Statistical Analysis and Tumor Inhibition Rate Calculation was as follows: Data were statistically analyzed using GraphPad Prism software.

## O=P1(N(CCCl)CCCl)NCCCO1 (centres unmarked) [Cyclophosphamide (CTX), Cyclophosphamide]
LLC cells; LLC s.c. in C57/BL/6 mice, day 7 after tumor cell inoculation, group mean
  Tumor Volume (mm^3) X: 80.40 mm^3
LLC cells; LLC s.c. in C57/BL/6 mice, day 9 after tumor cell inoculation, group mean
  Tumor Volume (mm^3) X: 112.89 mm^3
LLC cells; LLC s.c. in C57/BL/6 mice, day 10 after tumor cell inoculation, group mean
  Tumor Weight (g) X: 0.13 g
LLC cells; day 7 after tumor cell inoculation, from tumor volume vs NS
  Tumor Inhibition Rate: 33%
LLC cells; day 9 after tumor cell inoculation, from tumor volume vs NS
  Tumor Inhibition Rate: 47%
LLC cells; day 10 after tumor cell inoculation, from tumor weight vs NS
  Tumor Inhibition Rate: 45%
[1]; LLC s.c. in C57BL/6 mice, tumors excised at termination (day 8 in protocol table, day 10 in text)
  Tumor Weight (g) X ± SD: 0.03 ± 0.02 g
[1]; LLC, from tumor weight vs NS
  Tumor Inhibition Rate: 42.80%
